Measurements taken from ChEMBL document CHEMBL6103536, “Chemical Space Profiling of SARS-CoV-2 PLpro Using DNA-Encoded Focused Libraries” (ACS Med Chem Lett, 2024).

How the values were obtained:
[1] = target: Replicase polyprotein 1ab (Severe acute respiratory syndrome coronavirus 2) (UniProt P0DTD1); assay: Inhibition of SARS Cov-2 papain-like protease extracted form Escherichia coli Rosetta (DE3) using fluorogenic substrate RLRGG-AMC assessed as inhibition rate by measuring fluorescent signal at 4 uM incubated for 30 mins relative to control
[2] = target: Replicase polyprotein 1ab (Severe acute respiratory syndrome coronavirus 2, UniProt P0DTD1); assay: Inhibition of SARS Cov-2 papain-like protease extracted form Escherichia coli Rosetta (DE3) using fluorogenic substrate RLRGG-AMC assessed as inhibition rate by measuring fluorescent signal incubated for 30 mins

SMILES	inhibition [1]	IC50 [2]
Cc1ccc(NC(=O)c2ccnc(O)c2)cc1C(=O)N[C@H](C)c1cccc2ccccc12	74%	
Cc1ccc(NCc2ccc(CC(=O)O)cc2)cc1C(=O)N[C@H](C)c1cccc2ccccc12	Active; Compound Showed Weak Inhibitory Effect	
CCOC(=O)CCCNCc1ccc(-c2cccc([C@@H](C)NC(=O)c3cc(NC4CNC4)ccc3C)c2)s1		0.25 µM
CC[C@@H](C)[C@@H](NC(=O)c1ccc(-c2cccc([C@@H](C)NC(=O)c3cc(N)ccc3C)c2)s1)C(=O)OC	73%	2.72 µM
Cc1ccc(NC2CNC2)cc1C(=O)N[C@H](C)c1cccc(-c2ccc(CN3CC[C@@H](C(=O)O)C3)s2)c1		0.27 µM
Cc1ccc(NC(=O)c2ccc(Cl)s2)cc1C(=O)N[C@H](C)c1cccc2ccccc12	13%	> 20 µM
Cc1ccc(N)cc1C(=O)N[C@H](C)c1cccc(-c2ccc(C=O)s2)c1	30%	
Cc1ccc(NC(=O)c2cc(Br)cnc2Cl)cc1C(=O)N[C@H](C)c1cccc2ccccc12	19%	
CCOC(=O)CCCNCc1ccc(-c2cccc([C@@H](C)NC(=O)c3cc(N)ccc3C)c2)s1	Active; Compound Showed Weak Inhibitory Effect	
Cc1ccc(NC(=O)c2cccs2)cc1C(=O)N[C@H](C)c1cccc2ccccc12	Active; Compound Showed Weak Inhibitory Effect	
C[C@@H](NC(=O)c1cc(N)ccc1O)c1cccc2ccccc12	6%	
Cc1ccc(NC(=O)Oc2ccc([N+](=O)[O-])cc2)cc1C(=O)N[C@H](C)c1cccc2ccccc12	27%	
COC(=O)[C@@H](CCC(=O)OC(C)(C)C)NCc1ccc(-c2cccc([C@@H](C)NC(=O)c3cc(N)ccc3C)c2)s1 (racemic)	81%	4.71 µM
Cc1ccc(N)cc1C(=O)N[C@H](C)c1cccc2ccccc12	68%	
CCOC(=O)[C@@H]1CCN(Cc2ccc(-c3cccc([C@@H](C)NC(=O)c4cc(NC5CNC5)ccc4C)c3)s2)C1		1.94 µM
COc1ccc([N+](=O)[O-])c(C(=O)Nc2ccc(C)c(C(=O)N[C@H](C)c3cccc4ccccc34)c2)c1	53%	
COC(=O)Cc1ccc(CNc2ccc(C)c(C(=O)N[C@H](C)c3cccc4ccccc34)c2)cc1	21%	2.91 µM
Cc1ccc(NC(=O)c2cccnc2O)cc1C(=O)N[C@H](C)c1cccc2ccccc12	Active; Compound Showed Weak Inhibitory Effect	
Cc1ccc(NC(=O)c2cc(Br)cnc2O)cc1C(=O)N[C@H](C)c1cccc2ccccc12	Active; Compound Showed Weak Inhibitory Effect	
